This note sets out measurements from US6469027B1, “N-methyl-D-aspartate (NMDA) receptor blockers for the prevention of atherosclerosis” (The Board of Regents of the University of Nebraska, priority 1996, dated 2002).

For this assay, the system named is diacylglycerol. In words: sn-1,2-Diacylglycerol assay in VSMC. In kind it is cell-based, chicken. How it is done:
FIGS. 7A-7C are graphs illustrating the effect of H[cys] on diacylglycerol content in N-VSMC. (A) Time course of changes of membrane diacylglycerol content cell treated with 100μM H[cys] for the various times. Cells were recovered, membrane lipids extracted and diacylglycerol amounts determined as described in Methods. Results are expressed as the mean ± standard error of quadruplicate incubations from six independent experiments. (B) Effects of varying concentrations of H[cys] on diacylglycerol synthesis. Cells were treated for 30 min with different concentrations of H[cys] and membrane lipids were isolated and the diacylglycerol content determined. (C) Effect of PKC inhibitors on H[cys] mediated cell proliferation. N-VSMC cultures were grown in 1% FBS and 100 μM H[cys] in the presence and absence of staurosporine and cheleyrithrine chloride for the times (days-d) indicated. Cells were counted in quadruplicate in a Coulter counter every three days. Values represent the mean ±S.D. from four independent experiments.
.sn-1,2-Diacylglycerol assay: VSMC were treated with 0.01 to 100 μM H[cys] for 15-60 min. Cells were harvested and lipids were extracted by the method of Priess et al., (18). The analysis of diacylglycerol synthesis was as described previously by Wrenn et al. Wrenn, R. W. et al. (1993). […]

As for `N[C@@H](CCS)C(=O)O` [homocysteine], for the setting “30 min”, the “concentration at which increase in DAG membrane levels was first evident” value was determined as 3 µM. For the setting “treated for 15-60 min”, the “increase in DAG production” value is given as 3 fold.
